# US9353156B2, “Oligopeptide compounds and uses thereof” (Cytovation AS, priority 2010, dated 2016)
# What was measured:
# [1] = system: normal human forskin fibroblasts (HFF1); settings: 20 μg/ml, exposure for 90 minutes
# Experimental: MTT is a yellowish solution and is converted to water-insoluble MTT-formazan of dark blue colour by mitochondrial dehydrogenases of living cells. The blue crystals are solubilized with acidifies isopropanol and the intensity is measured colorimetrically at a wavelength of 570 nm (protocol for the MTT assay was used according to the manufacturer's instructions). Using a MTT cell viability assay, a comparison was made between normal human forskin fibroblasts (HFF1) and three cancer cell lines T986 (neuroblastoma cells), GaMG (glioblastoma), and A172 (glioblastoma).
# [2] = system: 142 cells, HFF1 cells, 143 carcinoma cells, HOS sarcoma cell line (FIG. 5); assay: LIVE/DEAD kit, fluorescence microscopy of monolayers (FIG. 5, text); type: cell-based; settings: 10 μg/ml of peptide
# Text: The LIVE/DEAD® Viability/Cytotoxicity kit employs a fluorescent dye to assess mammalian cell viability. Calcein AM and ethidium homodimer-1 (EthD-1) are found to be optimal dyes for this purpose. […] cells are distinguished from dead cells by the presence of intracellular esterase activity, determined by enzymatic conversion of non-fluorescen calcein AM to intensely fluorescent calcein. Calcein, which is a polyanionic dye, is well retained inside living cells producing an intense uniform green fluorescence. EthD-1 is excluded by intact membranes of viable cells, but it will enter cells with damaged cell membrane and bind to nucleic acids, producing a bright red fluorescence in dead cells. The protocol for using the live/dead kit is supplied by the manufacturer.
# To quantify the cytotoxic action of Peptide 1, 20 000 cells were placed in 24 well multiwell dishes. […] After 1-3-6 hrs the cellular viability was assessed using the Molecular Probes LIVE/DEAD kit. […]
# The cells were then observed using an inverted fluorescence microscope (Nikon Eclipse 2000E, Tokyo, Japan) equipped with FITC (green fluorescence) and TRITC (red fluorescence) filter optics. […] The proportion of viable cells (cells with green fluorescence) and the proportion of dead cells (red fluorescence) where then assessed by counting 100 cells. […]
substance,measurement,setting,value
Ac-YGRKKRRQRRRGKTLRVAKAIYKRYIE-NH2 [Peptide 1],surviving fraction,[1],58%
same,cytotoxic action (red cells),[2],slight cytotoxic action
